ChEMBL document CHEMBL1201862, “PubChem BioAssay data set” (2004)
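All cell lines were grown in 96-well plates and treated with compound for 48 hours. The concentration for 50% growth inhibition is given as GI50.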 The source made the active and inactive calls. Rule as the data show it: active = GI50 up to about 1.1 µM and inactive = higher. Non-standard residues stand in square brackets, D forms with d. Residues, ends and D or L forms follow the SMILES beside them. ξ: configuration not given here. *: point of attachment. NMeF = CN[C@@H](Cc1ccccc1)C(=O)O; NMeN = CN[C@@H](CC(N)=O)C(=O)O; NMeV = CN[C@H](C(=O)O)C(C)C; ξNMeV = CNC(C(=O)O)C(C)C; Boc = CC(C)(C)OC(=O)*; ξNMeA = CNC(C)C(=O)O; ξV = CC(C)C(N)C(=O)O

What was measured:
Assay in all cases: NCI anticancer screen, dose series, 48 h
[1] = test system: K562
[2] = test system: EKVX
[3] = test system: UACC-62
[4] = test system: MCF7
[5] = test system: SF-539
[6] = test system: SW-620
[7] = test system: A549
[8] = test system: SK-MEL-28
[9] = test system: NCI/ADR-RES
[10] = test system: HCT-15
[11] = test system: OVCAR-4
[12] = test system: 786-0
[13] = test system: RPMI-8226
[14] = test system: PC-3
[15] = test system: SK-OV-3
[16] = test system: SK-MEL-2
[17] = test system: MOLT-4
[18] = test system: HOP-62
[19] = test system: MDA-MB-231
[20] = test system: NCI-H522

SMILES | GI50 [1] | GI50 [2] | GI50 [3] | GI50 [4] | GI50 [5] | GI50 [6] | GI50 [7] | GI50 [8] | GI50 [9] | GI50 [10] [µM] | GI50 [11] | GI50 [12] | GI50 [13] | GI50 [14] | GI50 [15] | GI50 [16] | GI50 [17] | GI50 [18] | GI50 [19] | GI50 [20]
OCC(O)C(O)C(O)C(O)c1nc2cc(Cl)ccc2[nH]1 (stereo not given) | > 100 µM (inactive) | > 100 µM (inactive) | > 100 µM (inactive) | > 100 µM (inactive) | > 100 µM (inactive) | > 100 µM (inactive) | > 100 µM (inactive) | > 100 µM (inactive) | > 100 µM (inactive) | > 100 | > 100 µM (inactive) | > 100 µM (inactive) | > 100 µM (inactive) | > 100 µM (inactive) | 56.4 µM (inactive) | > 100 µM (inactive) | > 100 µM (inactive) | 90.4 µM (inactive) | > 100 µM (inactive) | > 100 µM (inactive)
CC(=O)Nc1ccc(/C=C2/NC(=S)N(/C=C3\C(=O)Oc4ccccc4C3=O)C2=O)cc1 | 49.4 µM (inactive) | > 100 µM (inactive) | 77.3 µM (inactive) | > 100 µM (inactive) | 96.2 µM (inactive) | 91 µM (inactive) | 58.9 µM (inactive) | 85.7 µM (inactive) | 33.7 µM (inactive) | 32.7 | 51.1 µM (inactive) | 69 µM (inactive) | 47.9 µM (inactive) | 54.5 µM (inactive) | 66.1 µM (inactive) | 40.9 µM (inactive) | 48 µM (inactive) | 48 µM (inactive) | 16.2 µM (inactive) | 36.7 µM (inactive)
CCC1(O)CC(OC2CC(N(C)C)C(OC3CC(O)C(OC4OC(C)C(=O)C=C4N)C(C)O3)C(C)O2)c2c(O)c3c(c(O)c2C1C(=O)OC)C(=O)c1cccc(O)c1C3=O (stereo not given) | 0.000196 µM (active) | 0.0103 µM (active) | 0.0106 µM (active) | 0.002 µM (active) | 0.00759 µM (active) | 0.00225 µM (active) | 0.00356 µM (active) | 0.0105 µM (active) | 0.0916 µM (active) | 0.0418 | 0.01 µM (active) | 0.0021 µM (active) | 0.00314 µM (active) | 0.00535 µM (active) | 0.00274 µM (active) | 0.00927 µM (active) | 0.00231 µM (active) | 0.0239 µM (active) | 0.0583 µM (active) | 0.0121 µM (active)
N#C/C=C1\C=CC(O)C(O)C1OC1OC(CO)C(O)C(O)C1O (stereo not given) | > 100 µM (inactive) | > 100 µM (inactive) | > 100 µM (inactive) | > 100 µM (inactive) | > 100 µM (inactive) | > 100 µM (inactive) | > 100 µM (inactive) | > 100 µM (inactive) | > 100 µM (inactive) | > 100 | > 100 µM (inactive) | > 100 µM (inactive) | > 100 µM (inactive) | > 100 µM (inactive) | > 100 µM (inactive) | > 100 µM (inactive) | > 100 µM (inactive) | > 100 µM (inactive) | > 100 µM (inactive) | > 100 µM (inactive)
Cc1cc(/N=C/c2ccc(N(C)C)cc2)n(-c2ccccc2)n1 | 44.6 µM (inactive) | 57.8 µM (inactive) | 86.7 µM (inactive) | 31 µM (inactive) | 45.9 µM (inactive) | 34.9 µM (inactive) | 42.4 µM (inactive) | > 100 µM (inactive) | 24.7 µM (inactive) | 15.6 | > 100 µM (inactive) | 51.8 µM (inactive) | 91.8 µM (inactive) | 48.4 µM (inactive) | 20.2 µM (inactive) | > 100 µM (inactive) | 42.6 µM (inactive) | 17 µM (inactive) | 91.6 µM (inactive) | 30.1 µM (inactive)
NS(=O)(=O)c1ccc(Nc2c3ccccc3nc3c(C(=O)NC(CO)(CO)CO)cccc23)cc1 | 0.19 µM (active) | 0.314 µM (active) | 0.138 µM (active) | 0.0143 µM (active) | 0.204 µM (active) | 0.163 µM (active) | 0.123 µM (active) | 0.242 µM (active) | 0.769 µM (active) | 0.282 | 0.0598 µM (active) | 0.0201 µM (active) | 0.217 µM (active) | 0.226 µM (active) | 0.188 µM (active) | 0.21 µM (active) | 0.0468 µM (active) | 0.178 µM (active) | 0.195 µM (active) | 0.15 µM (active)
CC(C)(C)c1cc(C(=O)C2Cc3ccccc3C(=O)O2)cc(C(C)(C)C)c1O (stereo not given) | 11.4 µM (inactive) | 12.3 µM (inactive) | 12.1 µM (inactive) | 12.5 µM (inactive) | 14.2 µM (inactive) | 10.3 µM (inactive) | 13.1 µM (inactive) | 15.8 µM (inactive) | 13 µM (inactive) | 12.4 | 11 µM (inactive) | 12.3 µM (inactive) | 5.93 µM (inactive) | 11.7 µM (inactive) | 24 µM (inactive) | 10.9 µM (inactive) | 8.55 µM (inactive) | 13.7 µM (inactive) | 12.1 µM (inactive) | 11.6 µM (inactive)
N#Cc1cc(-c2nc3cc(F)ccc3s2)ccc1N | > 100 µM (inactive) | 0.253 µM (active) | 14.9 µM (inactive) | < 0.01 µM (active) | 13.3 µM (inactive) | > 100 µM (inactive) | 1.84 µM (inactive) | > 100 µM (inactive) | > 61.2 µM (inactive) | 0.384 | 0.718 µM (active) | 27.6 µM (inactive) | > 100 µM (inactive) | 24.7 µM (inactive) | 20.7 µM (inactive) | 29.3 µM (inactive) | > 100 µM (inactive) | 15.3 µM (inactive) | 8.83 µM (inactive) | > 53.1 µM (inactive)
Cc1[nH]c(-c2ccccc2)c(-c2ccc(Cl)cc2)c1C(=O)ONC(=O)c1ccccc1 | 2.65 µM (inactive) | 3.07 µM (inactive) | 10.1 µM (inactive) | 11.9 µM (inactive) | 2.22 µM (inactive) | 7.26 µM (inactive) | 2.19 µM (inactive) | 8.38 µM (inactive) | 3.23 µM (inactive) | 6.17 | 2.62 µM (inactive) | 1.9 µM (inactive) | 3.02 µM (inactive) | 4.94 µM (inactive) | 10.5 µM (inactive) | 2.9 µM (inactive) | 2.69 µM (inactive) | 2.07 µM (inactive) | 3.64 µM (inactive) | 2.1 µM (inactive)
Cn1[nH]nn/c1=N\N=C\c1ccccc1 | > 10 µM (inactive) | 2.9 µM (inactive) | > 10 µM (inactive) | > 10 µM (inactive) | > 10 µM (inactive) | > 10 µM (inactive) | > 10 µM (inactive) | > 10 µM (inactive) | > 10 µM (inactive) | > 10 | > 10 µM (inactive) | > 10 µM (inactive) | > 10 µM (inactive) | > 10 µM (inactive) | > 10 µM (inactive) | > 10 µM (inactive) | > 10 µM (inactive) | > 10 µM (inactive) | > 10 µM (inactive) | > 10 µM (inactive)
C[C@H]1[C@H](C)CC[C@]2(C(=O)OC3OC(CO)C(O)C(O)C3O)CC[C@]3(C)C(=CC[C@@H]4[C@@]5(C)C[C@H]6OC(=O)c7cc(O)c(O)c(O)c7-c7c(cc(O)c(O)c7O)C(=O)O[C@@H]6C(CO)(CO)[C@@H]5CC[C@]43C)[C@H]12 (stereo not given in full) | 49.3 µM (inactive) | > 100 µM (inactive) | 99.3 µM (inactive) | 17 µM (inactive) | > 100 µM (inactive) | 37.6 µM (inactive) | > 100 µM (inactive) | > 100 µM (inactive) | > 100 µM (inactive) | 24.8 | 27.1 µM (inactive) | 19.5 µM (inactive) | > 100 µM (inactive) | > 82.6 µM (inactive) | > 95.5 µM (inactive) | > 100 µM (inactive) | > 41.5 µM (inactive) | > 100 µM (inactive) | 15.6 µM (inactive) | 16.6 µM (inactive)
COC(=O)C(C)N(C)C(=O)[C@H](CC(N)=O)N(C)C(=O)[C@@H]1CCCN1C(=O)[C@H](C(C)C)N(C)C(=O)C(C(C)C)N(C)C(=O)[C@H](Cc1ccccc1)N(C)C(=O)C(NC(=O)OC(C)(C)C)C(C)C (stereo not given in full) (Boc-[ξV][NMeF][ξNMeV][NMeV]P[NMeN][ξNMeA]-OMe) | 16.9 µM (inactive) | > 50 µM (inactive) | 10.2 µM (inactive) | 14.2 µM (inactive) | 28 µM (inactive) | 28.1 µM (inactive) | > 50 µM (inactive) | 18.2 µM (inactive) | > 50 µM (inactive) | 22 | > 50 µM (inactive) | 17.6 µM (inactive) | 12.4 µM (inactive) | 16.1 µM (inactive) | 46.2 µM (inactive) | 9.1 µM (inactive) | 8.95 µM (inactive) | 11.5 µM (inactive) | 16.3 µM (inactive) | 17.5 µM (inactive)
CCCCC(=C=C1CCCCC1O)C1CCCN1C(=O)OC(C)(C)C (stereo not given) | 17.5 µM (inactive) | 14.9 µM (inactive) | 11.2 µM (inactive) | 17.2 µM (inactive) | 18.7 µM (inactive) | 18.3 µM (inactive) | 14.9 µM (inactive) | 15.5 µM (inactive) | 14.3 µM (inactive) | 16.4 | 13.9 µM (inactive) | 16.1 µM (inactive) | 12.6 µM (inactive) | 16.1 µM (inactive) | 16.5 µM (inactive) | 16.2 µM (inactive) | 15.8 µM (inactive) | 17 µM (inactive) | 16.1 µM (inactive) | 17.1 µM (inactive)
